Common to all, as to assay type: biochemical
The target in one assay is Thrombin (Homo sapiens (Human), UniProt P00734). The experiment in a line: Dose response assay for protease inhibitors: thrombin. The conditions noted are these: selectivity, thrombin over Factor XIa. The method in brief: (§1)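 Glp-Pro-Arg-AMC substrate (thrombin, trypsin) or Pro-Phe-Arg-AMC/Boc-Leu-Gly-Arg-AMC (Factor Xa), diluted to 100 μM, in 20 mM Hepes pH 7.4, 150 mM NaCl, 0.02% Tween 20; enzyme diluted to 0.5 nM before addition. Two-fold serial compound dilutions; kinetic reads at 30° C. Data yield IC50 and Kon.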

The target of another assay is Factor Xa (Homo sapiens (Human), UniProt P00742). Kind of assay: Dose response assay for protease inhibitors: Factor Xa. The conditions noted are these: selectivity, Factor Xa over Factor XIa. In a few lines:
as §1

The next assay addresses Factor XIa (Homo sapiens (Human), UniProt P03951). The experiment in a line: Factor XIa enzyme inhibition assay (dose response, fluorogenic AMC substrate). The conditions noted are these: read-out: hFXIa IC50. The method in brief: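 Fluorogenic progress curves (30 min, 1-min reads, 30° C) were recorded for 0.25 nM FXIa cleaving 50 μM Glp-Pro-Arg-AMC in Hepes pH 7.4 buffer with NaCl and Tween 20. Compounds were serially two-fold diluted, and IC50 was fitted with a Hill equation.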

In another assay the test system is Trypsin. Kind of assay: Dose response assay for protease inhibitors: trypsin. The following applies: selectivity, trypsin over Factor XIa. The method in brief: as §1

Structures are written as SMILES.

Chain of Factor Xa (P00742 235-488): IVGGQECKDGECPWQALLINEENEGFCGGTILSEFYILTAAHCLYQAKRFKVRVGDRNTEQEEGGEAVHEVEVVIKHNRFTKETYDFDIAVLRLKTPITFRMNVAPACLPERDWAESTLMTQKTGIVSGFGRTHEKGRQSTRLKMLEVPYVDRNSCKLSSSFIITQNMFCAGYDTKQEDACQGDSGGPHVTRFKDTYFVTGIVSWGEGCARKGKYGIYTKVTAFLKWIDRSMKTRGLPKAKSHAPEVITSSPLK
Chain of Factor Xa (P00742 41-179 partner): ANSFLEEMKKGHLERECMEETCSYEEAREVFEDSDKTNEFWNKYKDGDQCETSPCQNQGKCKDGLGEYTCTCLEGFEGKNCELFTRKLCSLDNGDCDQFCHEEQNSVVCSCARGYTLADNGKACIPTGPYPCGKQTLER
Chain of Factor XIa (P03951 388-625): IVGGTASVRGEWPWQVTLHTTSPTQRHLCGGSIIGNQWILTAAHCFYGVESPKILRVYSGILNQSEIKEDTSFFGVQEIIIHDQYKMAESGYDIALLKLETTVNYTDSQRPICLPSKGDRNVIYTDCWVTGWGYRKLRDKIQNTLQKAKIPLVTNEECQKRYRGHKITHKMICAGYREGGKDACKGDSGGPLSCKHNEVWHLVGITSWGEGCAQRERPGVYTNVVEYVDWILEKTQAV
Chain of Factor XIa (P03951 19-387 partner): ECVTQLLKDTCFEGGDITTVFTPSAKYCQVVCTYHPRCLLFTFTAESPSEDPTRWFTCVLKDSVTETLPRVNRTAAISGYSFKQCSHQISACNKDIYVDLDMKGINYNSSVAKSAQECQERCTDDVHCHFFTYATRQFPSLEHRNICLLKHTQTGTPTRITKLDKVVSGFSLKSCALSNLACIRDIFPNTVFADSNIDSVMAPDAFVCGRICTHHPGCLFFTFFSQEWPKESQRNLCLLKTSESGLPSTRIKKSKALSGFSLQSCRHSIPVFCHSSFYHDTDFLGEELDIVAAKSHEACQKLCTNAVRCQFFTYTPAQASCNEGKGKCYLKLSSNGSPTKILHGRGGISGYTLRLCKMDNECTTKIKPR

On to `CC[C@@H](NC(=O)N1C(=O)[C@H](Cc2cc(C)nc(N)c2)[C@H]1C(=O)N(C)c1nccn1C)c1ccc(C)c(C)c1` [Compound 1-109, (2S,3R)-3-((2-amino-6-methylpyridin-4-yl)methyl)-N2-(1-methyl-1H-imidazol-2-yl)-N1-((R)-1-(3,4-dimethylphenyl)propyl)-N2-methyl-4-oxoazetidine-1,2-dicarboxamide], for which the “Ratio: Thrombin/FXIa” value at Thrombin is “H (“H” indicates 101-1000)”. The “Ratio: FXa/FXIa” value at Factor Xa is “H (“H” indicates 101-1000)”. Besides, the IC50 on Factor XIa was under 10 nM. The “Ratio: Trypsin/FXIa” value with Trypsin is listed as “G (“G” indicates 1-100)”.

Consider `CC[C@@H](NC(=O)N1C(=O)[C@H](Cc2cc(C)nc(N)c2)[C@H]1C(=O)N(C)c1nccn1C)c1cc(C)ccc1Cl` [Compound 1-111, (2S,3R)-3-((2-amino-6-methylpyridin-4-yl)methyl)-N2-(1-methyl-1H-imidazol-2-yl)-N1-((R)-1-(2-chloro-5-methylphenyl)propyl)-N2-methyl-4-oxoazetidine-1,2-dicarboxamide], for which the “Ratio: Thrombin/FXIa” value on Thrombin is given as “H (“H” indicates 101-1000)”. Further, at Factor Xa, the “Ratio: FXa/FXIa” value is recorded as “H (“H” indicates 101-1000)”. Also, on Factor XIa, the IC50 was under 10 nM. In addition, the “Ratio: Trypsin/FXIa” value in the assay on Trypsin was “G (“G” indicates 1-100)”.

Take `CC[C@@H](NC(=O)N1C(=O)[C@H](Cc2cc(C)nc(N)c2)[C@H]1C(=O)N(C)c1nccn1C)c1cc(C)ccc1F` [Compound 1-112, (2S,3R)-3-((2-amino-6-methylpyridin-4-yl)methyl)-N2-(1-methyl-1H-imidazol-2-yl)-N1-((R)-1-(2-fluoro-5-methylphenyl)propyl)-N2-methyl-4-oxoazetidine-1,2-dicarboxamide]: the “Ratio: Thrombin/FXIa” value on Thrombin is “H (“H” indicates 101-1000)”. In addition, the “Ratio: FXa/FXIa” value at Factor Xa is given as “I (“I” indicates > 500)”. Besides, the IC50 at Factor XIa lay within 10 to 100 nM. Moreover, the “Ratio: Trypsin/FXIa” value with Trypsin is listed as “G (“G” indicates 1-100)”.

With `CC[C@@H](NC(=O)N1C(=O)[C@H](Cc2cc(C)nc(N)c2)[C@H]1C(=O)N(C)c1nccn1C)c1ccc(C)c(Cl)c1` [Compound 1-113, (2S,3R)-3-((2-amino-6-methylpyridin-4-yl)methyl)-N2-(1-methyl-1H-imidazol-2-yl)-N1-((R)-1-(3-chloro-4-methylphenyl)propyl)-N2-methyl-4-oxoazetidine-1,2-dicarboxamide], the “Ratio: Thrombin/FXIa” value on Thrombin was “H (“H” indicates 101-1000)”. Besides, the “Ratio: FXa/FXIa” value on Factor Xa is on record as “H (“H” indicates 101-1000)”. Further, at Factor XIa, the 50% inhibitory concentration (IC50) is under 10 nM. In the assay on Trypsin, the “Ratio: Trypsin/FXIa” value is reported as “G (“G” indicates 1-100)”.

Take `CC[C@@H](NC(=O)N1C(=O)[C@H](Cc2ccnc(N)c2)[C@H]1C(=O)N(C)c1nccn1C)c1ccc(C)cc1C` [Compound 1-114, (2S,3R)-3-((2-aminopyridin-4-yl)methyl)-N2-(1-methyl-1H-imidazol-2-yl)-N1-((R)-1-(2,4-dimethylphenyl)propyl)-N2-methyl-4-oxoazetidine-1,2-dicarboxamide]: at Thrombin, the “Ratio: Thrombin/FXIa” value is “H (“H” indicates 101-1000)”. The “Ratio: FXa/FXIa” value on Factor Xa is on record as “H (“H” indicates 101-1000)”. Further, the 50% inhibitory concentration (IC50) at Factor XIa was under 10 nM. In addition, in the assay on Trypsin, the “Ratio: Trypsin/FXIa” value is listed as “G (“G” indicates 1-100)”.

Take `CC[C@@H](NC(=O)N1C(=O)[C@H](Cc2ccnc(N)c2)[C@H]1C(=O)N(C)c1ccn(C)n1)c1cc(F)ccc1F` [Compound 1-123, (2S,3R)-3-((2-aminopyridin-4-yl)methyl)-N2-(1-methyl-1H-pyrazol-3-yl)-N1-((R)-1-(2,5-difluorophenyl)propyl)-N2-methyl-4-oxoazetidine-1,2-dicarboxamide]: at Thrombin, the “Ratio: Thrombin/FXIa” value is “H (“H” indicates 101-1000)”. Besides, the “Ratio: FXa/FXIa” value at Factor Xa is on record as “I (“I” indicates > 500)”. The IC50 at Factor XIa is under 10 nM. Further, the “Ratio: Trypsin/FXIa” value in the assay with Trypsin is reported as “G (“G” indicates 1-100)”.

`CC[C@@H](NC(=O)N1C(=O)[C@H](Cc2ccnc(N)c2)[C@H]1C(=O)N(C)c1ccn(C)n1)c1cc(C)ccc1F` [Compound 1-125, (2S,3R)-3-((2-aminopyridin-4-yl)methyl)-N2-(1-methyl-1H-pyrazol-3-yl)-N1-((R)-1-(2-fluoro-5-methylphenyl)propyl)-N2-methyl-4-oxoazetidine-1,2-dicarboxamide]: the “Ratio: Thrombin/FXIa” value at Thrombin is “H (“H” indicates 101-1000)”. In addition, the “Ratio: FXa/FXIa” value on Factor Xa is “I (“I” indicates > 500)”. Further, the IC50 at Factor XIa is under 10 nM. For the same molecule, the “Ratio: Trypsin/FXIa” value with Trypsin is “G (“G” indicates 1-100)”.

Regarding `CC[C@@H](NC(=O)N1C(=O)[C@H](Cc2ccnc(N)c2)[C@H]1C(=O)N(C)c1ccn(C)n1)c1ccc(C)c(C)c1` [Compound 1-127, (2S,3R)-3-((2-aminopyridin-4-yl)methyl)-N2-(1-methyl-1H-pyrazol-3-yl)-N1-((R)-1-(3,4-dimethylphenyl)propyl)-N2-methyl-4-oxoazetidine-1,2-dicarboxamide], the “Ratio: Thrombin/FXIa” value on Thrombin is given as “H (“H” indicates 101-1000)”. Further, the “Ratio: FXa/FXIa” value on Factor Xa was “H (“H” indicates 101-1000)”. The 50% inhibitory concentration (IC50) at Factor XIa was under 10 nM. Besides, in the assay with Trypsin, the “Ratio: Trypsin/FXIa” value was “G (“G” indicates 1-100)”.

As to `CC[C@@H](NC(=O)N1C(=O)[C@H](Cc2ccnc(N)c2)[C@H]1C(=O)N(C)c1ccn(C)n1)c1cccc(F)c1C` [Compound 1-128, (2S,3R)-3-((2-aminopyridin-4-yl)methyl)-N2-(1-methyl-1H-pyrazol-3-yl)-N1-((R)-1-(2-methyl-3-fluorophenyl)propyl)-N2-methyl-4-oxoazetidine-1,2-dicarboxamide], the “Ratio: Thrombin/FXIa” value on Thrombin was “H (“H” indicates 101-1000)”. Also, on Factor Xa, the “Ratio: FXa/FXIa” value is given as “H (“H” indicates 101-1000)”. The IC50 on Factor XIa was under 10 nM. Besides, the “Ratio: Trypsin/FXIa” value in the assay on Trypsin is given as “G (“G” indicates 1-100)”.

Regarding `CC[C@@H](NC(=O)N1C(=O)[C@H](Cc2ccnc(N)c2)[C@H]1C(=O)N(C)c1ccn(C)n1)c1ccc(C)c(Cl)c1` [Compound 1-129, (2S,3R)-3-((2-aminopyridin-4-yl)methyl)-N2-(1-methyl-1H-pyrazol-3-yl)-N1-((R)-1-(3-chloro-4-methylphenyl)propyl)-N2-methyl-4-oxoazetidine-1,2-dicarboxamide], the “Ratio: Thrombin/FXIa” value on Thrombin is listed as “H (“H” indicates 101-1000)”. Further, the “Ratio: FXa/FXIa” value on Factor Xa is recorded as “H (“H” indicates 101-1000)”. For the same molecule, on Factor XIa, the IC50 is under 10 nM. Besides, the “Ratio: Trypsin/FXIa” value in the assay with Trypsin is given as “G (“G” indicates 1-100)”.

With `CC[C@@H](NC(=O)N1C(=O)[C@H](Cc2ccnc(N)c2)[C@H]1C(=O)N(C)c1ccn(C)n1)c1cccc(F)c1F` [Compound 1-134, (2S,3R)-3-((2-aminopyridin-4-yl)methyl)-N2-(1-methyl-1H-pyrazol-3-yl)-N1-((R)-1-(2,3-difluorophenyl)propyl)-N2-methyl-4-oxoazetidine-1,2-dicarboxamide], the “Ratio: Thrombin/FXIa” value on Thrombin is recorded as “H (“H” indicates 101-1000)”. Further, the “Ratio: FXa/FXIa” value at Factor Xa is on record as “I (“I” indicates > 500)”. The IC50 on Factor XIa is under 10 nM. For the same molecule, in the assay with Trypsin, the “Ratio: Trypsin/FXIa” value was “G (“G” indicates 1-100)”.

As to `CC[C@@H](NC(=O)N1C(=O)[C@H](Cc2ccnc(N)c2)[C@H]1C(=O)N(C)c1ccn(C)n1)c1ccc(C)c(F)c1` [Compound 1-136, (2S,3R)-3-((2-aminopyridin-4-yl)methyl)-N2-(1-methyl-1H-pyrazol-3-yl)-N1-((R)-1-(3-fluoro-4-methylphenyl)propyl)-N2-methyl-4-oxoazetidine-1,2-dicarboxamide], on Thrombin, the “Ratio: Thrombin/FXIa” value is recorded as “H (“H” indicates 101-1000)”. For the same molecule, the “Ratio: FXa/FXIa” value on Factor Xa is “H (“H” indicates 101-1000)”. The IC50 at Factor XIa was under 10 nM. The “Ratio: Trypsin/FXIa” value with Trypsin is listed as “G (“G” indicates 1-100)”.

For the origin of these results see patent US11691962B2 (eXIthera Pharmaceuticals, Inc., priority 2018, dated 2023).
